US6727066B2, “Genes expressed in treated human C3A liver cell cultures” (Incyte Corporation, priority 2000, dated 2004)

Assays:
[1] = cited from earlier work
[2] = system: human C3A liver cell cultures; assay: Microarray differential expression of cDNAs in treated human C3A liver cell cultures; assay type: cell-based; conditions: change vs untreated C3A cells
Description: Incyte clones represent template sequences derived from the LIFESEQ GOLD assembled human sequence database (Incyte Genomics). In cases where more than one clone was available for a particular template, the 5′-most clone in the template was used on the microarray. The GENEALBUM GEM series 1-6 microarrays (Incyte Genomics) contain 52,616 array elements which represent 17,472 annotated clusters and 35,144 unannotated clusters. The HUMAN GENOME GEM series 1-3 microarrays (Incyte Genomics) contain 28,626 array elements which represent 10,068 annotated clusters and 18,558 unannotated clusters. For the UNIGEM series microarrays (Incyte Genomics), Incyte clones were mapped to non-redundant Unigene clusters (Unigene database (build 46), NCBI; Shuler (1997) J Mol Med 75:694-698), and the 5′ clone with the strongest BLAST alignment (at least 90% identity and 100 bp overlap) was chosen, verified, and used in the construction of the microarray. The UNIGEM V microarray (Incyte Genomics) contains 7075 array elements which represent 4610 annotated genes and 2,184 unannotated clusters.
To construct microarrays, cDNAs were amplified from bacterial cells using primers complementary to vector sequences flanking the cDNA insert. […] Amplified cDNAs were then purified using […]-400 columns (APB). Purified cDNAs were immobilized on polymer-coated glass slides. Glass microscope slides (Corning, Corning N.Y.) were cleaned by ultrasound in 0.1% SDS and acetone, with extensive distilled water washes between and after treatments. Glass slides were etched in 4% hydrofluoric acid (VWR Scientific Products, West Chester Pa.), washed thoroughly in distilled water, and coated with 0.05% aminopropyl silane (Sigma Aldrich) in 95% ethanol. Coated slides were cured in a 110° C. oven. cDNAs were applied to the coated glass substrate using a procedure described in U.S. Pat. No. 5,807,522. One microliter of the cDNA at an average concentration of 100 ng/ul was loaded into the open capillary printing element by a high-speed robotic apparatus which then deposited about 5 nl of cDNA per slide.
Microarrays were UV-crosslinked using a […] UV-crosslinker (Stratagene), and then washed at room temperature once in 0.2% SDS and three times in distilled water. Non-specific binding sites were blocked by incubation of microarrays in 0.2% casein in phosphate buffered saline (Tropix, Bedford Mass.) for 30 minutes at 60° C. followed by washes in 0.2% SDS and distilled water as before.
Early confluent C3A cells (ATTC, Manassas Va.) were treated with captopril (0.5, 2, 48, and 60 μg/ml) for 1, 3, and 6 hours. Early confluent C3A cells were treated with enalapril (0.5, 2, 48, and 60 μg/ml) for 1, 3, and 6 hours. Early confluent C3A cells were treated with LY294002 (0.5, 2, 15, and 25 μg/ml) for 1, 3, and 6 hours. Early confluent C3A cells were starved of insulin for 3 days prior to treatment, then treated with LY294002 (10 μM) for 2, 24, 36, and 72 hours in the presence of insulin. Early confluent C3A cells were treated with DES (1, 10, and 100 μM) for 1, 3, and 6 hours. Early confluent C3A cells were treated with dexamethasone (1 and 20 μM) for 0, 2, 6, and 24 hours. Early confluent C3A cells were treated with MCA (0.5 and 10 μM) for 2, 6, and 24 hours. In all cases mRNA from untreated early confluent cells were prepared in parallel as described below.
Cells were harvested and lysed in 1 ml of TRIZOL reagent (5×10^6 cells/ml; Life Technologies). The lysates were vortexed thoroughly and incubated at room temperature for 2-3 minutes and extracted with 0.5 ml chloroform. The extract was mixed, incubated at room temperature for 5 minutes, and centrifuged at 15,000 rpm for 15 minutes at 4° C. The aqueous layer was collected and an equal volume of isopropanol was added.

CCOC(=O)[C@H](CCc1ccccc1)N[C@@H](C)C(=O)N1CCC[C@H]1C(=O)O [Enalapril]
time of peak plasma concentration ([1]; enalapril given orally): within an hour
oral bioavailability ([1]; given orally, not reduced by food): about 60%
half-life ([1]; in vivo): 1.3 h
expression level of cDNA clone 63038 [2]: −2.97
expression level of cDNA clone 118501 [2]: 6.06
expression level of cDNA clone 160822 [2]: 2.39
expression level of cDNA clone 279898 [2]: 4.08
expression level of cDNA clone 630625 [2]: 2.51
expression level of cDNA clone 1308112 [2]: 2.14
expression level of cDNA clone 1368834 [2]: 2.43
expression level of cDNA clone 1379063 [2]: −2.44
expression level of cDNA clone 1448718 [2]: −3.91
expression level of cDNA clone 1696224 [2]: 3.97
expression level of cDNA clone 1711151 [2]: 2.48
expression level of cDNA clone 1861456 [2]: −2.51
expression level of cDNA clone 1930235 [2]: 3
expression level of cDNA clone 1975268 [2]: −2.75
expression level of cDNA clone 1998269 [2]: 2.27
expression level of cDNA clone 2055569 [2]: −3.1
expression level of cDNA clone 2123516 [2]: 3.71
expression level of cDNA clone 2513883 [2]: 3.82
expression level of cDNA clone 2757583 [2]: 4.13
expression level of cDNA clone 2884613 [2]: 2.51
expression level of cDNA clone 2921991 [2]: −4.67
expression level of cDNA clone 2933775 [2]: 4.73
expression level of cDNA clone 2955163 [2]: 2.33
expression level of cDNA clone 4556538 [2]: 3.02

C[C@H](N[C@@H](CCc1ccccc1)C(=O)O)C(=O)N1CCC[C@H]1C(=O)O [Enalaprilat, enalaprilat]
plasma half-life ([1]; in vivo): about 11 hours

Cc1ccc2cc3c(ccc4ccccc43)c3c2c1CC3 [MCA, 3-methylcholanthrene]
expression level of cDNA clone 72713 [2]: 3
expression level of cDNA clone 85606 [2]: 2.96
expression level of cDNA clone 118501 [2]: 4.54
expression level of cDNA clone 121785 [2]: 3.3
expression level of cDNA clone 136073 [2]: 3.1
expression level of cDNA clone 279898 [2]: 5.48
expression level of cDNA clone 311346 [2]: 4.59
expression level of cDNA clone 318486 [2]: 4.11
expression level of cDNA clone 408886 [2]: 4.93
expression level of cDNA clone 450856 [2]: 2.89
expression level of cDNA clone 452321 [2]: 4.3
expression level of cDNA clone 454839 [2]: 3.4
expression level of cDNA clone 462069 [2]: 2.41
expression level of cDNA clone 481402 [2]: 3.22
expression level of cDNA clone 510056 [2]: 5.65
expression level of cDNA clone 511448 [2]: 3.05
expression level of cDNA clone 560115 [2]: −2.61
expression level of cDNA clone 604019 [2]: 3.28
expression level of cDNA clone 630625 [2]: 2.25
expression level of cDNA clone 669498 [2]: −2.97
expression level of cDNA clone 701484 [2]: 2.51
expression level of cDNA clone 872017 [2]: 2.85
expression level of cDNA clone 1308112 [2]: 2.28
expression level of cDNA clone 1316801 [2]: 3.38
expression level of cDNA clone 1379063 [2]: −3.63
expression level of cDNA clone 1381654 [2]: 2.64
expression level of cDNA clone 1457424 [2]: 2.93
expression level of cDNA clone 1522880 [2]: 2.74
expression level of cDNA clone 1560906 [2]: 3.13
expression level of cDNA clone 1616783 [2]: 2.63
expression level of cDNA clone 1619292 [2]: −2.8
expression level of cDNA clone 1623214 [2]: −3.12
expression level of cDNA clone 1630990 [2]: 3.34
expression level of cDNA clone 1696224 [2]: 4.4
expression level of cDNA clone 1756875 [2]: 2.99
expression level of cDNA clone 1786554 [2]: 2.67
expression level of cDNA clone 1833362 [2]: −2.33
expression level of cDNA clone 1890576 [2]: −3.07
expression level of cDNA clone 1930235 [2]: 2.93
expression level of cDNA clone 1975268 [2]: −2.51
expression level of cDNA clone 1998269 [2]: 2.46
expression level of cDNA clone 2055867 [2]: −2.67
expression level of cDNA clone 2120743 [2]: 2.97
expression level of cDNA clone 2123516 [2]: 3.83
expression level of cDNA clone 2195427 [2]: 2.32
expression level of cDNA clone 2232658 [2]: 2.25
expression level of cDNA clone 2252107 [2]: 2.44
expression level of cDNA clone 2293496 [2]: −2.88
expression level of cDNA clone 2343348 [2]: 2.89
expression level of cDNA clone 2511277 [2]: 3.07
expression level of cDNA clone 2513883 [2]: 3.67
expression level of cDNA clone 2520894 [2]: 3.21
expression level of cDNA clone 2579218 [2]: 2.42
expression level of cDNA clone 2660756 [2]: 2.25
expression level of cDNA clone 2675232 [2]: 3.09
expression level of cDNA clone 2695371 [2]: 2.68
expression level of cDNA clone 2708055 [2]: 2.45
expression level of cDNA clone 2756333 [2]: 2.66
expression level of cDNA clone 2757583 [2]: 4.31
expression level of cDNA clone 2765271 [2]: 2.25
expression level of cDNA clone 2822027 [2]: 2.96
expression level of cDNA clone 2825358 [2]: 2.44
expression level of cDNA clone 2831490 [2]: 2.48
expression level of cDNA clone 2860918 [2]: −3.2
expression level of cDNA clone 2884613 [2]: 2.2
expression level of cDNA clone 2891601 [2]: 2.56
expression level of cDNA clone 2912637 [2]: −4.29
expression level of cDNA clone 2921991 [2]: −3.43
expression level of cDNA clone 2955163 [2]: 3.24
expression level of cDNA clone 2956444 [2]: 3.04
expression level of cDNA clone 3074113 [2]: 3.03
expression level of cDNA clone 3108506 [2]: 3.02
expression level of cDNA clone 3158828 [2]: 2.67
expression level of cDNA clone 3222802 [2]: 3.23
expression level of cDNA clone 3225977 [2]: 2.59
expression level of cDNA clone 3381870 [2]: 2.3
expression level of cDNA clone 3407653 [2]: 2.7
expression level of cDNA clone 3472927 [2]: 2.77
expression level of cDNA clone 3493381 [2]: 2.62
expression level of cDNA clone 3606046 [2]: 3.24
expression level of cDNA clone 3792988 [2]: 3.23
expression level of cDNA clone 4019706 [2]: 3.55
expression level of cDNA clone 4070979 [2]: 2.44
expression level of cDNA clone 4091186 [2]: 2.64
expression level of cDNA clone 4092112 [2]: 3.55
expression level of cDNA clone 4203937 [2]: 7.13
expression level of cDNA clone 4246966 [2]: 3.03
expression level of cDNA clone 4254855 [2]: 2.3
expression level of cDNA clone 4284384 [2]: 2.73
expression level of cDNA clone 4287327 [2]: −2.54
expression level of cDNA clone 4403805 [2]: 2.4
expression level of cDNA clone 4508879 [2]: 2.68
expression level of cDNA clone 4549259 [2]: 2.53
expression level of cDNA clone 4721130 [2]: 3.57
expression level of cDNA clone 5093071 [2]: 2.36
expression level of cDNA clone 5102731 [2]: 2.33
expression level of cDNA clone 5266015 [2]: 2.47
expression level of cDNA clone 5266376 [2]: 2.54
expression level of cDNA clone 5512044 [2]: 2.26
